Data: publication PMC8001472, “Novel Selective IDO1 Inhibitors with Isoxazolo[5,4-d]pyrimidin-4(5H)-one Scaffold” (Pharmaceuticals, 2021)

Assays:
hTDO = biological target: T1, hTDO (Homo sapiens, UniProt P48775); test: hTDO inhibitory potency evaluation (fluorescence assay); format: biochemical
T1 construct: purchased Vinci-Biochem
Method: (§1) Additionally, to determine IDO1 selectivity, all final compounds were assayed for their inhibitory potencies towards hIDO2 and hTDO. For this purpose, two new protocols were developed based on the published fluorescence assay for hIDO1 [25]. Sodium ascorbate, methylene blue, and bovine catalase were used in the same concentrations as for hIDO1. 50 mM phosphate buffers with pH values of 7.5 and 7.0 were used for hIDO2 and hTDO, respectively, as has been already mentioned before. First, the activities of hIDO2 and hTDO were determined at four different concentrations. […] Additionally, the effect of DMSO concentration on enzyme activity was investigated. […] The optimal hIDO2 and hTDO assay concentrations of the substrate L-Trp were determined to be 4 mM and 500 μM, respectively.
The activity of the compounds on hTDO was determined according to the previously reported fluorescence protocol for hIDO1 [25] and reported absorbance protocols for hTDO [30] with several modifications. Recombinant hTDO was purchased from Vinci-Biochem (Vinci-Biochem, Vinci, Italy), bovine catalase was purchased from Sigma-Aldrich (Sigma-Aldrich, St. Louis, MO, USA). Prior to the measurement of activity for compounds, the enzyme activity was determined, and optimal assay enzyme concentration was selected. The amounts of reagents needed to perform the assay were optimized. Briefly, the reagents needed were dissolved in 50 mM potassium phosphate buffer (pH 7.0, 0.01%, v/v Tween 20), the reaction was performed in black 384-well microplates. After the addition of 1 μL of 100 mM sodium ascorbate neutralized with equimolar amount of 1 M NaOH, 1 μL of 100 μM methylene blue, 1 μL of 1 mg/mL bovine catalase, 0.5 μL of DMSO (negative control) or solution of a compound, 5 μL of 300 nM hTDO and 1.5 μL of 3.3 mM L-Trp were added and the microplate was incubated for 60 min at 37 °C. The reaction was quenched with the addition of 10 μL of 400 mM piperidine solution in MilliQ water and the formation of the examined fluorophore began following incubation at 65 °C for 20 min. The production of NFK-derived fluorophore (λEX = 400 nm, λEM = 500 nm) was measured using a microplate reader (Synergy H4; BioTek Instruments, Inc., Winooski, VT, USA) after 60 min post-incubation at room temperature. In the preliminary testing compounds were tested at 100 μM with activities determined as residual activities—RA, which were calculated to% of inhibition, presented in Table 1 and Table 2 (% of inhibition = 100% − RA). All determinations were carried out in duplicates.

hIDO2 = biological target: T2, hIDO2 (Homo sapiens, UniProt Q6ZQW0); test: hIDO2 inhibitory potency evaluation (fluorescence assay); format: biochemical
T2 construct: purchased Vinci-Biochem
T2 sequence (Q6ZQW0 1-407): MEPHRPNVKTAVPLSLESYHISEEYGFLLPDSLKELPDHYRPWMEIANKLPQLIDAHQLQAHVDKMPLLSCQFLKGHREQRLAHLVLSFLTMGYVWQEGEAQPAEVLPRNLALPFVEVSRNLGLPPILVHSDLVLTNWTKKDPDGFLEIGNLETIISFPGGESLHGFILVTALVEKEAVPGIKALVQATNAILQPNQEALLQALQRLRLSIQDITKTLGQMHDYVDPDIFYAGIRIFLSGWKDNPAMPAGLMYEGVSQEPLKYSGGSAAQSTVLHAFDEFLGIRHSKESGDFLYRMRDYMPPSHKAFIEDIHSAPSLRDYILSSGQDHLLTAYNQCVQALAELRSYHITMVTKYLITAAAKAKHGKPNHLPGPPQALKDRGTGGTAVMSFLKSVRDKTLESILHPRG
Method: as §1
Activity of the compounds on hIDO2 was determined according to the previously reported fluorescence protocol for hIDO1 [25] and reported absorbance protocols for hIDO2 [30, 36] with several modifications. Recombinant hIDO2 was purchased from Vinci-Biochem (Vinci-Biochem, Srl, Vinci, Italy), bovine catalase was purchased from Sigma-Aldrich (Sigma-Aldrich, St. Louis, MO, USA). Prior to the measurement of activity for compounds, the enzyme activity was determined and optimal assay enzyme concentration was selected. The amounts of reagents needed to perform the assay were optimized. Briefly, the reagents needed were dissolved in 50 mM potassium phosphate buffer (pH 7.5, 0.01%, v/v Tween 20), the reaction was performed in black 384-well microplates. After the addition of 1 μL of 100 mM sodium ascorbate neutralized with an equimolar amount of 1M NaOH, 1 μL of 100 μM methylene blue, 1 μL of 1 mg/mL bovine catalase, 0.5 μL of DMSO (negative control) or solution of a compound in DMSO, 5 μL of […] hIDO2 and 1.5 μL of 26.7 mM L-Trp were added and the microplate was incubated for 60 min at 37 °C. The reaction was quenched with the addition of 10 μL of 400 mM piperidine solution in MilliQ water and the formation of the examined fluorophore began following incubation at 65 °C for 20 min. The production of NFK-derived fluorophore (λEX = 400 nm, λEM = 500 nm) was measured using a microplate reader (Synergy H4; BioTek Instruments, Inc., Winooski, VT, USA) after 60 min post-incubation at room temperature. In the preliminary testing compounds were tested at 100 μM with activities determined as residual activities—RA, which were calculated to% of inhibition, presented in Table 1 and Table 2. (% of inhibition = 100% − RA). All determinations were carried out in duplicates.

T1 sequence (P48775 whole entry): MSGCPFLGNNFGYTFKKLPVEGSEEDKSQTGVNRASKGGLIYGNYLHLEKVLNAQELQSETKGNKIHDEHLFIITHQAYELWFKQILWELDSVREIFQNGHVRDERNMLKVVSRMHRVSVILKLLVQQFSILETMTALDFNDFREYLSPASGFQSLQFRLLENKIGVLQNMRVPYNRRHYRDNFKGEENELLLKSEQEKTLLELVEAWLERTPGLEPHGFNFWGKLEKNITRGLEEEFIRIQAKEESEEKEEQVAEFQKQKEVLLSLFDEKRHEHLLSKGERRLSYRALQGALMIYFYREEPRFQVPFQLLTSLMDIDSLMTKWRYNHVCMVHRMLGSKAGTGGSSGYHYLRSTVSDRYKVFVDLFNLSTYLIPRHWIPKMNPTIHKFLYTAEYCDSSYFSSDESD

Q: Which results are given for `O=C(Cn1cnc2onc(-c3ccc(F)cc3)c2c1=O)Nc1ccc(C(F)(F)F)cc1` [Compound 23]?
A: melting point: 225 to 227 °C; hTDO inhibition (in words) (hTDO): no activity; hIDO2 inhibition (in words) (hIDO2): no activity
